Results as given in US9732111B2, “2′-alkynyl substituted nucleoside derivatives and methods of use thereof for the treatment of viral diseases” (Merck Sharp & Dohme Corp., priority 2012, dated 2017).
Like-named read-outs stand apart in the source and are kept apart here.

Key:
replicon cells (1b-Con1) = test: Cytotoxicity in replicon cells (MTS assay); conditions: CC50, MTS assay, three days post dosing
[1] = test system: HCV replicon cells (1b-Con1); test: Replicon activity assay (replicon RNA level by real-time RT-PCR); type: cell-based; conditions: Hepatitis C virus, 72 h, read-out: Replicon (1b) EC50
[2] = biological target: T1, HCV NS5B RNA-dependent RNA polymerase (1b-BKΔ55) (Hepatitis C virus genotype 1b, UniProt P26663); test: Inhibition of HCV NS5B polymerase by nucleoside triphosphate analogs (radiolabeled nucleotide incorporation assay); type: biochemical
T1 construct: 5 nM NS5B (1b-BKΔ55) enzyme
T1 sequence (P26663 2420-2955, stated change not applied): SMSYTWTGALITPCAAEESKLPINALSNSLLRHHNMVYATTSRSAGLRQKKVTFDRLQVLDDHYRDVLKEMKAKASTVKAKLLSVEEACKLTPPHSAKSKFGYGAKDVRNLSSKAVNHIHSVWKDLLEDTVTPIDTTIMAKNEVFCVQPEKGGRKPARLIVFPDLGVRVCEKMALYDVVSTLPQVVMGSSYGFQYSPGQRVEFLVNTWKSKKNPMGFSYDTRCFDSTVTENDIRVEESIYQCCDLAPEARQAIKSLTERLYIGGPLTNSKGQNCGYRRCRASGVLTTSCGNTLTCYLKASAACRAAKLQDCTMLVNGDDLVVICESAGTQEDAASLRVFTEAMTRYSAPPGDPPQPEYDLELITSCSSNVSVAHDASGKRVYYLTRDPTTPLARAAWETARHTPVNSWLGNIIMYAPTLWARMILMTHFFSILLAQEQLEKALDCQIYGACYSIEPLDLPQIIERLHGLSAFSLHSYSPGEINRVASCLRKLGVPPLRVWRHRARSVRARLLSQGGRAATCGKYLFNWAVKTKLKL
Protocol: To measure inhibition of the enzymatic activity of the HCV NS5B RNA-dependent RNA polymerase by the nucleoside triphosphate compounds of the present invention, a radiolabeled nucleotide incorporation assay was used. This assay is a modified version of the assay described in International Publication No. WO2002/057287. Briefly, 50 μL reactions containing 20 mM HEPES (pH 7.3); 7.5 mM DTT; 20 units/mL RNasIN; 1 μM each of ATP, GTP, UTP and CTP; 20 μCi/mL [^33P]-CTP; 10 mM MgCl; 60 mM NaCl; 100 μg/mL BSA; 0.021 μM DCoH heteropolymer RNA template; and 5 nM NS5B (1b-BKΔ55) enzyme are incubated at room temperature for 1 hour. The assay is then terminated by the addition of 500 mM EDTA (50 μL). The reaction mixture is transferred to a Millipore DE81 filter plate and the incorporation of labeled CTP is determined using Packard TopCount. Compound IC50 values can then be calculated from experiments with 10 serial 3-fold dilutions of the inhibitor in duplicate. The intrinsic potency (Ki) of an NTP inhibitor is derived from its NS5B IC50 using the Cheng-Prusoff equation for a competitive inhibitor, as described in Cheng et al., Biochem Pharmacol 22:3099-3108 (1973): Ki=IC50/(1+[S]/Km), where [S]=1 μM, and Km is the concentration of cognate NTP yielding half-maximal enzyme activity in the assay absent exogenous inhibitors.
Data was obtained using this method for the NTP analogs of selected compounds below of the present invention, and is set forth below.

Row | SMILES | Cytotoxicity (replicon cells (1b-Con1)) | EC50 [1] | Ki [2] | EC50 ([1]; 1b-Con1 replicon cells, three days post-dosing)
1 | C#C[C@@]1(O)[C@H](O)[C@@H](COP(=O)(N[C@@H](C)C(=O)OC(C)C)Oc2ccccc2)O[C@H]1n1ccc(=O)[nH]c1=O (single isomer, unassigned) | >100 µM | 90 nM |  | 
2 | CC(C)OC(=O)[C@H](C)NP(=O)(OC[C@H]1O[C@@H](n2ccc(=O)[nH]c2=O)[C@@](O)(C#CC2CC2)[C@@H]1O)Oc1ccccc1 (stereo partly shown) | 14.2 µM | 1100 nM |  | 
3 | CC#C[C@@]1(O)[C@H](O)[C@@H](COP(=O)(O)OP(=O)(O)OP(=O)(O)O)O[C@H]1n1ccc(=O)[nH]c1=O |  |  | 58 nM | 
4 | C#C[C@]1(O)[C@H](O)[C@@H](COP(=O)(O)OP(=O)(O)OP(=O)(O)O)O[C@H]1n1ccc(=O)[nH]c1=O |  |  | ~19000 nM | 
5 | C#C[C@@]1(O)[C@H](O)[C@@H](COP(=O)(O)OP(=O)(O)OP(=O)(O)O)O[C@H]1n1ccc(=O)[nH]c1=O |  |  | 36 nM | 
6 | CC#C[C@]1(O)[C@H](O)[C@@H](COP(=O)(O)OP(=O)(O)OP(=O)(O)O)O[C@H]1n1ccc(=O)[nH]c1=O |  |  | ~12000 nM | 
7 | CC#C[C@]1(O)[C@H](O)[C@@H](COP(=O)(N[C@@H](C)C(=O)OC(C)C)Oc2ccccc2)O[C@H]1n1ccc(=O)[nH]c1=O (single isomer, unassigned) | >100 µM | 940 nM |  | 
8 | C#C[C@@]1(O)[C@@H]2OP(=O)(OC(C)C)OC[C@H]2O[C@H]1n1ccc(=O)[nH]c1=O (single isomer, unassigned) | >100 µM |  |  | 21000 nM
9 | CC#C[C@@]1(F)[C@H](O)[C@@H](COP(=O)(N[C@@H](C)C(=O)OC(C)C)Oc2ccccc2)O[C@H]1n1ccc(=O)[nH]c1=O (stereo partly shown) | 74.4 µM | 45700 nM |  | 
10 | C#C[C@@]1(O)[C@H](OC(=O)C(C)C)[C@@H](COP(=O)(N[C@@H](C)C(=O)OC(C)C)Oc2ccccc2)O[C@H]1n1ccc(=O)[nH]c1=O (single isomer, unassigned) | >100 µM | 100 nM |  | 
11 | CC(C)OC(=O)[C@H](C)NP(=O)(OC[C@H]1O[C@@H](n2ccc(=O)[nH]c2=O)[C@@](O)(C#CC(F)(F)F)[C@@H]1O)Oc1ccccc1 (stereo partly shown) | 40.7 µM | 25200 nM |  | 
12 | C#C[C@@]1(N)[C@H](O)[C@@H](COP(=O)(O)OP(=O)(O)OP(=O)(O)O)O[C@H]1n1ccc(=O)[nH]c1=O |  |  | 1200 nM | 
